14 compounds from US8178535B2, “Substituted sulfonamide compounds having bradykinin 1 receptor activity and use thereof as medicaments” (Gruenenthal GmbH, priority 2008, dated 2012) can be followed below.

Test [1] concerns the target T1, human B1R receptor (hB1R) (Homo sapiens, UniProt P46663).
T1 construct: host or cells: CHO K1 cells
T1 sequence (P46663 1-353): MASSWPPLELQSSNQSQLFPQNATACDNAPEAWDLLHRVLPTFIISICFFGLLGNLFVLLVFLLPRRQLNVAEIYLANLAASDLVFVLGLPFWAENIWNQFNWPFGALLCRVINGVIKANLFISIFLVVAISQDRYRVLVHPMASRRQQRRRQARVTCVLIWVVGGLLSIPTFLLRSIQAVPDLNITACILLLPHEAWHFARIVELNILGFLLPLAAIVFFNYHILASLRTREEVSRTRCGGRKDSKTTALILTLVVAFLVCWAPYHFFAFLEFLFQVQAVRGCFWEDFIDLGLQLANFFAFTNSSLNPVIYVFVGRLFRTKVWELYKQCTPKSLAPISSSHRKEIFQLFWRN
Nature of the test: FLIPR Ca2+ assay (Fluo-4) on CHO K1 cells stably transfected with the human B1R gene. It is filed as cell-based. To be noted: CHO-K1; test substance 10 μM; agonist Lys-Des-Arg9-bradykinin 0.5 nM; % inhibition compared to the maximum achievable inhibition. On the procedure:
(§1) The agonistic or antagonistic action of compounds can be quantified on the bradykinin 1 receptor (B1R) of humans and rats with ectopically expressing cell lines (CHO K1 cells) and with the aid of a Ca^2+-sensitive dye (Fluo-4) in the fluorescent imaging plate reader (FLIPR). The figure in percent activation refers to the Ca^2+ signal after addition of Lys-Des-Arg^9-bradykinin (0.5 nM) and Des-Arg^9-bradykinin (100 nM). Antagonists result in a suppression of the Ca^2+ inflow after the addition of the agonist. Percent inhibition values are given in comparison to the maximum achievable inhibition. The compounds according to the invention act, for example, on the B1R which is implicated in various disease states. This means that the compounds of the invention are useful as pharmaceutically active substances in medicaments for the treatment and/or inhibition of such disease states.
(§2) The agonistic or antagonistic action of substances can be determined on the bradykinin 1 receptor (B1R) of humans and rats by means of the following assay. According to this assay the Ca^2+ inflow through the channel is quantified by means of a Ca^2+-sensitive dye (Fluo-4 type, Molecular Probes Europe BV, Leiden, Netherlands), in a Fluorescent Imaging Plate Reader (FLIPR, Molecular Devices, Sunnyvale, USA).
(§3) Chinese hamster ovary cells (CHO K1 cells) are used, which are stably transfected with the human B1R gene (hB1R cells, Euroscreen s.a., Gosselies, Belgium), or with the B1R gene of rats (rB1R cells, Axxam, Milan, Italy). For functional investigations these cells are plated out on black 96-well plates with a clear floor (BD Biosciences, Heidelberg, Germany) in a density of 20,000/25,000 cells/well. The cells are incubated overnight with 10 vol. % FBS (foetal bovine serum, Gibco Invitrogen GmbH, Karlsruhe, Germany) at 37° C. and 5% CO2 in a culture medium (hB1R cells: Nutrient Mixture Ham's F12, Gibco Invitrogen GmbH, Karlsruhe, Germany; rB1R cells: D-MEM/F12, Gibco Invitrogen GmbH, Karlsruhe, Germany). The following day the cells are charged for 60 minutes at 37° C. with 2.13 μM Fluo-4 (Molecular Probes Europe BV, Leiden, Netherlands) in HBSS buffer (Hank's buffered saline solution, Gibco Invitrogen GmbH, Karlsruhe, Germany) together with […] (Sigma-Aldrich, Taufkirchen, Germany) and 10 mM HEPES (Sigma-Aldrich, Taufkirchen, Germany).
(§4) The plates are then washed twice with HBSS buffer and HBSS buffer is added which additionally contains 0.1% BSA (bovine serum albumin; Sigma-Aldrich, Taufkirchen, Germany), 5.6 mM glucose and 0.05% gelatin (Merck KGaA, Darmstadt, Germany). After further incubation for 20 minutes at room temperature the plates are used for the Ca^2+ measurement in the FLIPR. The Ca^2+-dependent fluorescence is measured both before and after the addition of substances (λex=488 nm, λem=540 nm). The quantification is carried out by measuring the highest fluorescence intensity (FC, fluorescence counts) over time.
(§5) The FLIPR protocol consists of two substance additions. First, test substances (10 μM) are pipetted onto the cells and the Ca^2+ inflow is compared with the control (hB1R: Lys-Des-Arg9-bradykinin 0.5 nM; rB1R: Des-Arg9-bradykinin 100 nM). This gives the result in percent activation referred to the Ca^2+ signal after addition of Lys-Des-Arg9-bradykinin (0.5 nM), bzw. Des-Arg9-bradykinin (100 nM). After 10 minutes' incubation 0.5 nM Lys-Des-Arg9-bradykinin (hB1R) and 100 nM Des-Arg^9-bradykinin (rB1R) are applied and the inflow of Ca^2+ is likewise determined. Antagonists lead to a suppression of the Ca^2+ inflow. The percent inhibition compared to the maximum achievable inhibition is calculated. The compounds show a good activity on both human and rat receptors.
(§6) The agonistic and antagonistic action of the compounds according to the invention on the bradykinin 1 receptor (B1R) of humans and rats were determined as described above. Antagonists lead to a suppression of the Ca^2+ inflow. […]

In test [2] the target is T2, B1R receptor of rats (rB1R) (Rattus norvegicus, UniProt P97583).
T2 construct: host or cells: CHO K1 cells
T2 sequence (P97583 1-337): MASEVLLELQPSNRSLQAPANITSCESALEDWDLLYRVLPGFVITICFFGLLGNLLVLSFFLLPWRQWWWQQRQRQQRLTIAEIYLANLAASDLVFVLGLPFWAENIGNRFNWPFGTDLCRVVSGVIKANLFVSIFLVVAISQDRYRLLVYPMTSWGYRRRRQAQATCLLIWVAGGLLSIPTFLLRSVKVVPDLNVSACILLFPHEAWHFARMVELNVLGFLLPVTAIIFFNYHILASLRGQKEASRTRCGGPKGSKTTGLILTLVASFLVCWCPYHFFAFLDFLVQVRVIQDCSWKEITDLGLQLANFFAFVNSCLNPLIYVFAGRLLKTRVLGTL
Nature of the test: FLIPR Ca2+ assay (Fluo-4) on CHO K1 cells stably transfected with the B1R gene of rats. It is filed as cell-based. The conditions noted are these: CHO-K1; test substance 10 μM; agonist Des-Arg9-bradykinin 100 nM; % inhibition compared to the maximum achievable inhibition. On the procedure:
as §1, §2, §3, §4, §5, §6

With `COc1cc(C)c(S(=O)(=O)N2CCCCC2COCC(=O)N2CCn3cnnc3C2)c(C)c1` (stereo not drawn) [(1), 1-(5,6-dihydro-[1,2,4]triazolo[4,3-a]pyrazin-7(8H)-yl)-2-((1-(4-methoxy-2,6-dimethylphenylsulfonyl)piperidin-2-yl)methoxy)ethanone], the inhibition at 10 µM was 56% in test [1] and 100% in test [2].

For the compound `COc1cc(C)c(S(=O)(=O)N2CCCCC2COCC(=O)N2CCn3cc(CN4CCCCC4)nc3C2)c(C)c1` (stereo not drawn) [(2), 2-((1-(4-methoxy-2,6-dimethylphenylsulfonyl)piperidin-2-yl)methoxy)-1-(2-(piperidin-1-ylmethyl)-5,6-dihydroimidazo[1,2-a]pyrazin-7(8H)-yl)ethanone], the results for the inhibition at 10 µM in test [1] and in test [2] were 105% and 106%, respectively.

For `COc1cc(C)c(S(=O)(=O)N2CCCCC2COCC(=O)N2CCn3c(CN4CCN(C)CC4)ccc3C2)c(C)c1` (stereo not drawn) [(4), 2-((1-(4-methoxy-2,6-dimethylphenylsulfonyl)piperidin-2-yl)methoxy)-1-(6-((4-methylpiperazin-1-yl)methyl)-3,4-dihydropyrrolo[1,2-a]pyrazin-2(1H)-yl)ethanone], the figures for the inhibition at 10 µM in test [1] and in test [2] were 105% and 101%, respectively.

`Cc1cc(S(=O)(=O)N2CCCCC2CCC(=O)N2CCn3c(CN4CCN(C)CC4)ccc3C2)c(C)cc1Cl` (stereo not drawn) [(5), 3-(1-(4-chloro-2,5-dimethylphenylsulfonyl)piperidin-2-yl)-1-(6-((4-methyl-piperazin-1-yl)methyl)-3,4-dihydropyrrolo[1,2-a]pyrazin-2(1H)-yl)propan-1-one]: the figures for the inhibition at 10 µM in test [1] and in test [2] were 100% and 51%, respectively.

`COc1cc(C)c(S(=O)(=O)N2CCCCC2COCC(=O)N2CCn3c(CN4CCOCC4)ccc3C2)c(C)c1` (stereo not drawn) [(6), 2-((1-(4-methoxy-2,6-dimethylphenylsulfonyl)piperidin-2-yl)methoxy)-1-(6-(morpholinomethyl)-3,4-dihydropyrrolo[1,2-a]pyrazin-2(1H)-yl)ethanone]: the results for the inhibition at 10 µM in test [1] and in test [2] were 100% and 101%, respectively.

Regarding `CN1CCN(Cc2ccc3n2CCN(C(=O)CC2CCCCN2S(=O)(=O)c2cccc(C(F)(F)F)c2)C3)CC1` (stereo not drawn) [(7), 1-(6-((4-methylpiperazin-1-yl)methyl)-3,4-dihydropyrrolo[1,2-a]pyrazin-2(1H)-yl)-2-(1-(3-(trifluoromethyl)phenylsulfonyl)piperidin-2-yl)ethanone], the inhibition at 10 µM in test [1] amounted to 87%; in test [2], 52%.

In the case of `O=C(CC1CCCCN1S(=O)(=O)c1cccc(C(F)(F)F)c1)N1CCn2c(CN3CCCC3)ccc2C1` (stereo not drawn) [(8), 1-(6-(pyrrolidin-1-ylmethyl)-3,4-dihydropyrrolo[1,2-a]pyrazin-2(1H)-yl)-2-(1-(3-(trifluoromethyl)phenylsulfonyl)piperidin-2-yl)ethanone], the inhibition at 10 µM in test [1] amounted to 99%; in test [2] it was 96%.

With `Cc1cc(S(=O)(=O)N2CCCCC2CCC(=O)N2CCn3c(CN4CCCC4)ccc3C2)c(C)cc1Cl` (stereo not drawn) [(9), 3-(1-(4-chloro-2,5-dimethylphenylsulfonyl)piperidin-2-yl)-1-(6-(pyrrolidin-1-ylmethyl)-3,4-dihydropyrrolo[1,2-a]pyrazin-2(1H)-yl)propan-1-one], the inhibition at 10 µM is 104% in test [1] and 48% in test [2].

Take `O=C(COCC1CCc2ccccc2N1S(=O)(=O)c1ccc(Cl)c(Cl)c1)N1CCn2c(CN3CCCC3)ccc2C1` (stereo not drawn) [(10), 2-((1-(3,4-dichlorophenylsulfonyl)-1,2,3,4-tetrahydroquinolin-2-yl)methoxy)-1-(6-(pyrrolidin-1-ylmethyl)-3,4-dihydropyrrolo[1,2-a]pyrazin-2(1H)-yl)ethanone]: the inhibition at 10 µM in test [1] was determined as 101%; in test [2] it was 91%.

As to `CN1CCN(Cc2ccc3n2CCN(C(=O)COCC2CCc4ccccc4N2S(=O)(=O)c2ccc(Cl)c(Cl)c2)C3)CC1` (stereo not drawn) [(11), 2-((1-(3,4-dichlorophenylsulfonyl)-1,2,3,4-tetrahydroquinolin-2-yl)methoxy)-1-(6-((4-methylpiperazin-1-yl)methyl)-3,4-dihydropyrrolo[1,2-a]pyrazin-2(1H)-yl)ethanone], the inhibition at 10 µM in test [1] came to 100%; in test [2], 56%.

Regarding `Cc1cc(S(=O)(=O)N2CCCCC2CCC(=O)N2CCn3c(CN4CCOCC4)ccc3C2)c(C)cc1Cl` (stereo not drawn) [(12), 3-(1-(4-chloro-2,5-dimethylphenylsulfonyl)piperidin-2-yl)-1-(6-(morpholino-methyl)-3,4-dihydropyrrolo[1,2-a]pyrazin-2(1H)-yl)propan-1-one], the inhibition at 10 µM was 103% in test [1] and 57% in test [2].

Consider `COc1cc(C)c(S(=O)(=O)N2CCCCC2COCC(=O)N2CCn3c(CN4CCCC4)ccc3C2)c(C)c1` (stereo not drawn) [(13), 2-((1-(4-methoxy-2,6-dimethylphenylsulfonyl)piperidin-2-yl)methoxy)-1-(6-(pyrrolidin-1-ylmethyl)-3,4-dihydropyrrolo[1,2-a]pyrazin-2(1H)-yl)ethanone], for which the inhibition at 10 µM in test [1] and in test [2] was 102% in each case.

Take `COc1cc(C)c(S(=O)(=O)N2CCCCC2COCC(=O)N2CCn3c(CCCN4CCN(C)CC4)ccc3C2)c(C)c1` (stereo not drawn) [(14), 2-((1-(4-methoxy-2,6-dimethylphenylsulfonyl)piperidin-2-yl)methoxy)-1-(6-(3-(4-methylpiperazin-1-yl)propyl)-3,4-dihydropyrrolo[1,2-a]pyrazin-2(1H)-yl)ethanone]: the values for the inhibition at 10 µM in test [1] and in test [2] were 97% and 99%, respectively.

As to `COc1cc(C)c(S(=O)(=O)N2CCCCC2COCC(=O)N2CCn3c(CN4CCCCC4)nnc3C2)c(C)c1` (stereo not drawn) [(87), 2-((1-(4-Methoxy-2,6-dimethylphenylsulfonyl)piperidin-2-yl)methoxy)-1-(3-(piperidin-1-ylmethyl)-5,6-dihydro-[1,2,4]triazolo[4,3-a]pyrazin-7(8H)-yl)ethanone], the inhibition at 10 µM in test [2] turned out to be 103%.

For orientation: inhibition means the drop in the measured response relative to a control, in per cent.
